Laboratory results published in patent US8273752B2, “Substituted imidazopyrimidines and triazolopyrimidines” (Bayer Intellectual Property GmbH, priority 2007, dated 2012).
Where a name gives a salt, the structure may show the parent alone.

Target: T1, GSK3β (Homo sapiens, UniProt P49841)
T1 construct: purchased Upstate xy
Assay: GSK3β biochemical in vitro assay (fluorescence, NADH-coupled)
Settings: 5 nM GSK3β, 40 μM substrate GSM, 50 μM ATP, 30° C., 2 hours
Experimental: The inhibitory activity of active substances is determined in a biochemical assay. The ingredients required for this purpose are mixed in a black 384-well microtitre plate with transparent base (from Greiner, catalogue number 781092). The requirements in this connection for each well of the 384-well microtitre plate are 5 nM GSK3β (from Upstate, catalogue number xy), 40 μM GSK3B substrate GSM (sequence H-RRRPASVPPSPSLSRHS-(pS)-HQRR, from Upstate, catalogue number 2-533), 30 μM nicotinamide adenine dinucleotide NADH (Roche Diagnostics, catalogue number 10107735), 50 μM adenosine triphosphate ATP (from Sigma, catalogue number A7966), and 2 mM phosphoenolpyruvate (from Roche, catalogue number 128112). The required reaction buffer in which the biochemical reaction takes place consists of 50 mM Trizma hydrochloride tris-HCl pH: 7.5 (from Sigma, catalogue number T3253), 5 mM magnesium chloride MgCl2 (from Sigma, catalogue number M8266), 0.2 mM DL-dithiothreitol DTT (from Sigma, catalogue number D9779), 2 mM ethylenediaminethertetraacid EDTA (from Sigma, catalogue number E6758), 0.01% Triton X-100 (from Sigma, catalogue number T8787) and 0.05% bovine serum albumin BSA (from Sigma, catalogue number B4287).
Active substances are dissolved in dimethyl sulphoxide DMSO (from Sigma, catalogue number D8418) in a concentration of 10 mM. Active substances are added in serial concentrations of 10 μM, 1 μM, 0.1 μM, 0.01 μM, 0.001 μM, 0.0001 μM, 0.00001 μM, 0.000001 μM to the mixtures of the biochemical reaction. As control, dimethyl sulphoxide is added instead of substance in a final concentration of 0.1%.
The reaction is incubated at 30° C. for 2 hours and then the resulting fluorescence is measured in a Tecan Safire-XFLUOR4 instrument, version V4.50 (serial number 12901300283) with the specifications: measurement mode—fluorescence measured from below, extinction wavelength 340 nm, emission wavelength 465 nm, slit width extinction 5 nm, slit width emission 5 nm, gain mode 120, delay 0 μs, number of light flashes per measurement 3, and an integration time of 40 μs.
The activity of the active substances is calculated in relation to these 0% and 100%.

T1 sequence (P49841 whole entry, species assumed): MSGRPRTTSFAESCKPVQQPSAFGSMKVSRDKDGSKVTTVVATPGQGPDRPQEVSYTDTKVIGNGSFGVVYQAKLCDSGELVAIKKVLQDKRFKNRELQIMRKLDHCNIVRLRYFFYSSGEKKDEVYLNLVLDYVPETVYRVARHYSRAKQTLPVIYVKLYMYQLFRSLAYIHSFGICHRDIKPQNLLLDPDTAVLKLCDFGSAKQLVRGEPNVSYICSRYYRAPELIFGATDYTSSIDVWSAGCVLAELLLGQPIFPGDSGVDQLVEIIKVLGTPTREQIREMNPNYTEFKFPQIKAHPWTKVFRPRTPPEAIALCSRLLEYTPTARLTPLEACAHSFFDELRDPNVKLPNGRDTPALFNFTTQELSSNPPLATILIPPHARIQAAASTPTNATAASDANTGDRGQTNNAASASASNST

Row | Structure (SMILES) | IC50 [nM]
1 | CC(=O)c1ccc(NCCNc2nc(-c3ccc(Cl)cc3Cl)cc3nccn23)nc1N [Example 150, 1-{2-Amino-6-[(2-{[7-(2,4-dichlorophenyl)imidazo[1,2-c]pyrimidin-5-yl]amino}ethyl)amino]-pyridin-3-yl}ethanone hydrochloride] | 11
2 | N#Cc1ccc(NCCNc2nc(-c3ccc(Cl)cc3Cl)cc3ncc(Br)n23)nc1 [Example 153, 6-[(2-{[3-Bromo-7-(2,4-dichlorophenyl)imidazo[1,2-c]pyrimidin-5-yl]amino}ethyl)amino]-pyridine-3-carbonitrile] | 14
3 | N#Cc1ccc(NCCNc2nc(-c3ccc(Cl)cc3Cl)cc3ncc(Cl)n23)nc1 [Example 154, 6-[(2-{[3-Chloro-7-(2,4-dichlorophenyl)imidazo[1,2-c]pyrimidin-5-yl]amino}ethyl)amino]-pyridine-3-carbonitrile] | 19
4 | COC(=O)c1ccc(NCCNc2nc(-c3ccc(Cl)cc3Cl)cc3ncnn23)nc1N [Example 167] | 61
5 | N#Cc1ccc(NCCNc2nc(-c3ccc(C(F)(F)F)cc3)cc3nc(CN4CCOCC4)nn23)nc1N [Example 180] | 50
6 | N#Cc1sc(NCCNc2nc(-c3ccc(Cl)cc3Cl)cc3nc(CN4CCOCC4)nn23)nc1N [Example 185] | 39
7 | N#Cc1sc(NCCNc2nc(-c3ccc(C(F)(F)F)cc3)cc3ncnn23)nc1N [Example 186] | 27
8 | Nc1nc(NCCNc2nc(-c3ccc(Cl)cc3Cl)cc3nc(CN4CCOCC4)nn23)ccc1C(=O)C(F)(F)F [Example 194] | 0.7
9 | N#Cc1sc(NC2CCCN(c3nc(-c4ccc(Cl)cc4Cl)cc4ncnn34)C2)nc1N (stereo not shown) [Example 202] | 5
10 | Nc1nc(NCCNc2nc(-c3ccc(Cl)cc3Cl)cc3ncnn23)sc1C(=O)C(F)(F)F [Example 203] | 3
